Biological target: insulin (Homo sapiens, UniProt P01308)
Test: Dissociation of high order protein aggregates by circular dichroism
Assay type: physicochemical
Conditions: 0.18 mM insulin, 0.18-37 mM MP-DCK, CD 300 to 250 nm, room temperature (FIG. 5)
Method: A circular dichroism spectropolarimeter (Jasco J-715, Tokyo, Japan) was used to measure the effect of a delivery carrier on the aggregation state of insulin. Solutions containing 0.18 mM insulin and different concentration of MP-DCK (0.18-37 mM) were scanned from 300 to 250 nm at room temperature at a scanning speed of 50 nm/min using a cuvette with a pathlength of 0.1 cm. The results of the test are illustrated in FIG. 5.

Sequence of insulin (P01308 25-54 limits assumed): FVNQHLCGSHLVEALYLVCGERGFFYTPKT
Sequence of insulin (P01308 90-110 limits assumed): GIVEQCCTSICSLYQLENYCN

COC(=O)[C@H](CCCCN)NC(=O)CC[C@@H](C)[C@H]1CC[C@H]2[C@@H]3CC[C@@H]4C[C@H](O)CC[C@]4(C)[C@H]3C[C@H](O)[C@]12C [DCK, N^α-deoxychoyl-L-lysine-methylester]
aggregation state of insulin: decrease the aggregation state of the insulin
